Results from publication PMC5218480 (PLoS ONE, 2017).

Test system: MV-4-11 cells
Test: Gene expression microarray analysis (Affymetrix PrimeView) and GSEA
Format: cell-based, human
Design: RFU PODN (11730768_x_at) / Fold change /veh PODN (11730768_x_at) / RFU LINC00158 (11744669_a_at) / Fold change /veh LINC00158 (11744669_a_at) / RFU DUSP10 (11751237_a_at) / Fold change /veh DUSP10 (11751237_a_at) / RFU ID3 (11757404_x_at) / Fold change /veh ID3 (11757404_x_at) / RFU PLEKHG5 (11737974_s_at) / Fold change /veh PLEKHG5 (11737974_s_at) / RFU LRRC4B (11730491_at) / Fold change /veh LRRC4B (11730491_at) / RFU GIMAP4 (11747438_a_at) / Fold change /veh GIMAP4 (11747438_a_at) / RFU KRT8 (11758183_x_at) / Fold change /veh KRT8 (11758183_x_at) / RFU CNN1 (11734310_a_at) / Fold change /veh CNN1 (11734310_a_at) / RFU VPS37D (11726825_at) / Fold change /veh VPS37D (11726825_at) / RFU C10orf10 (11716522_x_at) / Fold change /veh C10orf10 (11716522_x_at) / RFU KIR2DL2 /// KIR2DL4 /// KIR2DL5A /// KIR2DL5B /// KIR2DS1 /// KIR2DS2 /// KIR2DS3 /// KIR2DS4 /// KIR3DL3 /// KIR3DL3 /// KIR3DS1 (11738374_at) / Fold change /veh KIR2DL2 /// KIR2DL4 /// KIR2DL5A /// KIR2DL5B /// KIR2DS1 /// KIR2DS2 /// KIR2DS3 /// KIR2DS4 /// KIR3DL3 /// KIR3DL3 /// KIR3DS1 (11738374_at) / RFU C1QL1 (11718748_at) / Fold change /veh C1QL1 (11718748_at) / RFU TMPRSS4 (11747572_a_at) / Fold change /veh TMPRSS4 (11747572_a_at) / RFU HAMP (11756126_x_at) / Fold change /veh HAMP (11756126_x_at) / RFU RNFT2 (11725882_a_at) / Fold change /veh RNFT2 (11725882_a_at) / RFU NR4A2 (11747474_a_at) / Fold change /veh NR4A2 (11747474_a_at) / RFU ABCC12 (11746883_a_at) / Fold change /veh ABCC12 (11746883_a_at) / RFU TMEM136 (11760407_x_at) / Fold change /veh TMEM136 (11760407_x_at) / RFU CLDN22 /// WWC2 (11732394_at) / Fold change /veh CLDN22 /// WWC2 (11732394_at) / RFU HLA-DPB1 (11760878_x_at) / Fold change /veh HLA-DPB1 (11760878_x_at) / RFU SPINT1 (11716480_a_at) / Fold change /veh SPINT1 (11716480_a_at) / RFU GAP43 (11754022_s_at) / Fold change /veh GAP43 (11754022_s_at) / RFU A4GNT (11735810_at) / Fold change /veh A4GNT (11735810_at) / RFU PRB3 (11715151_x_at) / Fold change /veh PRB3 (11715151_x_at) / RFU TUBB4B (11761932_at) / Fold change /veh TUBB4B (11761932_at) / RFU CAPN14 (11732068_a_at) / Fold change /veh CAPN14 (11732068_a_at) / RFU TMCC2 (11721928_a_at) / Fold change /veh TMCC2 (11721928_a_at) / RFU IRGQ (11745062_a_at) / Fold change /veh IRGQ (11745062_a_at) / RFU FAM174B (11720279_a_at) / Fold change /veh FAM174B (11720279_a_at) / RFU TMPRSS4 (11748680_a_at) / Fold change /veh TMPRSS4 (11748680_a_at) / RFU FAM212B (11763350_a_at) / Fold change /veh FAM212B (11763350_a_at) / RFU PLEKHG5 (11743358_a_at) / Fold change /veh PLEKHG5 (11743358_a_at) / RFU ZSCAN30 (11745921_a_at) / Fold change /veh ZSCAN30 (11745921_a_at) / RFU CMKLR1 (11741424_a_at) / Fold change /veh CMKLR1 (11741424_a_at) / RFU LOC101060620 /// MAPK8IP1 (11723275_at) / Fold change /veh LOC101060620 /// MAPK8IP1 (11723275_at) / RFU SPTSSB (11747773_x_at) / Fold change /veh SPTSSB (11747773_x_at) / RFU PRSS12 (11739890_at) / Fold change /veh PRSS12 (11739890_at) / RFU BIN1 (11741810_x_at) / Fold change /veh BIN1 (11741810_x_at) / RFU WNT11 (11732464_a_at) / Fold change /veh WNT11 (11732464_a_at) / RFU C10orf10 (11716521_a_at) / Fold change /veh C10orf10 (11716521_a_at) / RFU C5orf56 (11738089_at) / Fold change /veh C5orf56 (11738089_at) / RFU CYB561 (11721691_x_at) / Fold change /veh CYB561 (11721691_x_at) / RFU ANKRD19P (11752326_a_at) / Fold change /veh ANKRD19P (11752326_a_at) / RFU OR2T12 /// OR2T33 /// OR2T8 (11738714_s_at) / Fold change /veh OR2T12 /// OR2T33 /// OR2T8 (11738714_s_at) / RFU VCAN (11748164_a_at) / Fold change /veh VCAN (11748164_a_at) / RFU JSRP1 (11732532_at) / Fold change /veh JSRP1 (11732532_at) / RFU KRTAP10-11 (11738290_x_at) / Fold change /veh KRTAP10-11 (11738290_x_at) / RFU MYO3A (11730013_a_at) / Fold change /veh MYO3A (11730013_a_at) / RFU EBF3 (11725865_a_at) / Fold change /veh EBF3 (11725865_a_at) / RFU CAMK2N1 (11719241_x_at) / Fold change /veh CAMK2N1 (11719241_x_at) / RFU C5orf56 (11738088_a_at) / Fold change /veh C5orf56 (11738088_a_at) / RFU OLFML3 (11715873_a_at) / Fold change /veh OLFML3 (11715873_a_at) / RFU LOC100653217 /// NTM (11731650_a_at) / Fold change /veh LOC100653217 /// NTM (11731650_a_at) / RFU MAPK11 (11762145_a_at) / Fold change /veh MAPK11 (11762145_a_at) / RFU FIZ1 (11724087_x_at) / Fold change /veh FIZ1 (11724087_x_at) / RFU OASL (11726364_x_at) / Fold change /veh OASL (11726364_x_at) / RFU SOX15 (11748057_x_at) / Fold change /veh SOX15 (11748057_x_at) / RFU CD79A (11719716_a_at) / Fold change /veh CD79A (11719716_a_at) / RFU HIST1H1D (11736915_at) / Fold change /veh HIST1H1D (11736915_at) / RFU CASKIN2 (11723855_a_at) / Fold change /veh CASKIN2 (11723855_a_at) / RFU LOC730098 (11760151_x_at) / Fold change /veh LOC730098 (11760151_x_at) / RFU OR4N2 (11742367_at) / Fold change /veh OR4N2 (11742367_at) / RFU PRRT2 (11749266_a_at) / Fold change /veh PRRT2 (11749266_a_at) / RFU SNX32 (11753110_a_at) / Fold change /veh SNX32 (11753110_a_at) / RFU CDHR5 (11726645_a_at) / Fold change /veh CDHR5 (11726645_a_at) / RFU RCAN1 (11760418_a_at) / Fold change /veh RCAN1 (11760418_a_at) / RFU FAM167A (11723789_a_at) / Fold change /veh FAM167A (11723789_a_at) / RFU FAM26E (11764081_at) / Fold change /veh FAM26E (11764081_at) / RFU ISYNA1 (11749810_s_at) / Fold change /veh ISYNA1 (11749810_s_at) / RFU ACY1 (11761880_at) / Fold change /veh ACY1 (11761880_at) / RFU 11764098_at / Fold change /veh 11764098_at / RFU SAMD14 (11745864_x_at) / Fold change /veh SAMD14 (11745864_x_at) / RFU NPB (11741838_a_at) / Fold change /veh NPB (11741838_a_at) / RFU TMPRSS6 (11731388_a_at) / Fold change /veh TMPRSS6 (11731388_a_at) / RFU KRTAP10-2 (11738614_at) / Fold change /veh KRTAP10-2 (11738614_at) / RFU ARHGAP8 /// PRR5-ARHGAP8 (11727945_x_at) / Fold change /veh ARHGAP8 /// PRR5-ARHGAP8 (11727945_x_at) / RFU KRTAP5-7 /// NADSYN1 (11734609_at) / Fold change /veh KRTAP5-7 /// NADSYN1 (11734609_at) / RFU RASL12 (11751679_a_at) / Fold change /veh RASL12 (11751679_a_at) / RFU CDKN2B (11736163_a_at) / Fold change /veh CDKN2B (11736163_a_at) / RFU PRF1 (11729649_at) / Fold change /veh PRF1 (11729649_at) / RFU, ZNF638 /// ZNF638-IT1 / Fold change vs veh, ZNF638 /// ZNF638-IT1 / RFU, PANK3 / Fold change vs veh, PANK3 / RFU, SH3YL1 / Fold change vs veh, SH3YL1 / RFU, ZEB2 / Fold change vs veh, ZEB2 / RFU, NRIP1 / Fold change vs veh, NRIP1 / RFU, PTTG1IP / Fold change vs veh, PTTG1IP / RFU, CAPN2 / Fold change vs veh, CAPN2 / RFU, MED14 / Fold change vs veh, MED14 / RFU, SNORA58 / Fold change vs veh, SNORA58 / RFU, C1orf63 / Fold change vs veh, C1orf63 / RFU, LRRFIP1 / Fold change vs veh, LRRFIP1 / RFU, NDUFAF7 / Fold change vs veh, NDUFAF7 / RFU, SLC12A2 / Fold change vs veh, SLC12A2 / RFU, IBTK / Fold change vs veh, IBTK / RFU, ESF1 / Fold change vs veh, ESF1 / Fold change vs veh, TMEM50B / RFU, TAOK1 / Fold change vs veh, TAOK1 / RFU, ACBD3 / Fold change vs veh, ACBD3 / RFU, TMA16 / Fold change vs veh, TMA16 / RFU, RWDD3 / Fold change vs veh, RWDD3 / RFU, BCAT1 / Fold change vs veh, BCAT1 / RFU, EDEM3 / Fold change vs veh, EDEM3 / RFU, TMEM33 / Fold change vs veh, TMEM33 / RFU, WDR75 / Fold change vs veh, WDR75 / RFU, AHCTF1 / Fold change vs veh, AHCTF1 / RFU, TFRC / Fold change vs veh, TFRC / RFU, ZDHHC17 / Fold change vs veh, ZDHHC17 / RFU, NOM1 / Fold change vs veh, NOM1 / RFU, ARL8B / Fold change vs veh, ARL8B / RFU, ZBTB11 / Fold change vs veh, ZBTB11 / RFU, TAMM41 / Fold change vs veh, TAMM41 / RFU, KIAA1704 /// LOC100996395 / Fold change vs veh, KIAA1704 /// LOC100996395 / RFU, ING1 / Fold change vs veh, ING1 / RFU, TRMT61B / Fold change vs veh, TRMT61B / RFU, FUBP3 / Fold change vs veh, FUBP3 / RFU, TP53 / Fold change vs veh, TP53 / RFU, TNKS2 / Fold change vs veh, TNKS2 / RFU, ZFP14 / Fold change vs veh, ZFP14 / RFU, ACTR2 / Fold change vs veh, ACTR2 / RFU, PPP3R1 / Fold change vs veh, PPP3R1 / RFU, PIK3R1 / Fold change vs veh, PIK3R1 / RFU, HNRNPA1 / Fold change vs veh, HNRNPA1 / RFU, RNF170 / Fold change vs veh, RNF170 / RFU, ZNF28 / Fold change vs veh, ZNF28 / RFU, RNGTT / Fold change vs veh, RNGTT / RFU, OGT / Fold change vs veh, OGT / RFU, BRD1 / Fold change vs veh, BRD1 / RFU, MARS / Fold change vs veh, MARS / RFU, ZNF655 / Fold change vs veh, ZNF655 / RFU, FAHD1 / Fold change vs veh, FAHD1 / RFU, BDP1 / Fold change vs veh, BDP1 / RFU, LRRCC1 / Fold change vs veh, LRRCC1 / RFU, ARID1A / Fold change vs veh, ARID1A / RFU, ZNF146 / Fold change vs veh, ZNF146 / RFU, ZNF330 / Fold change vs veh, ZNF330 / RFU, GPN3 / Fold change vs veh, GPN3 / RFU, C9orf123 / Fold change vs veh, C9orf123 / RFU, N4BP2L2 / Fold change vs veh, N4BP2L2 / RFU, ARFIP1 / Fold change vs veh, ARFIP1 / RFU, FAM179B / Fold change vs veh, FAM179B / RFU, BCL10 / Fold change vs veh, BCL10 / RFU, UHRF1BP1L / Fold change vs veh, UHRF1BP1L / RFU, BET1 / Fold change vs veh, BET1 / RFU, CNOT2 / Fold change vs veh, CNOT2 / RFU, ZNF268 / Fold change vs veh, ZNF268 / Fold change vs veh, ZNF507 / RFU, DGCR2 / Fold change vs veh, DGCR2 / RFU, WDSUB1 / Fold change vs veh, WDSUB1 / Fold change vs veh, HSP90B1 /// MIR3652 / RFU, ADSS / Fold change vs veh, ADSS / RFU, GK / Fold change vs veh, GK / RFU, ZNF148 / Fold change vs veh, ZNF148 / RFU, TAF9 / Fold change vs veh, TAF9 / RFU, SLC1A5 / Fold change vs veh, SLC1A5 / RFU, SLMO2 / Fold change vs veh, SLMO2 / RFU, ABCC4 / Fold change vs veh, ABCC4 / RFU, LOC101060439 /// RAP1B / Fold change vs veh, LOC101060439 /// RAP1B / RFU, RFX7 / Fold change vs veh, RFX7 / RFU, GTPBP10 / Fold change vs veh, GTPBP10 / RFU, CNEP1R1 / Fold change vs veh, CNEP1R1 / RFU, BIVM-ERCC5 /// ERCC5 / Fold change vs veh, BIVM-ERCC5 /// ERCC5 / RFU, ILF3 / Fold change vs veh, ILF3 / RFU 11762660_at / Fold change /veh 11762660_at / RFU VCAN (11757783_s_at) / Fold change /veh VCAN (11757783_s_at) / RFU DDX43 (11728927_at) / Fold change /veh DDX43 (11728927_at) / RFU KRT8 (11758188_x_at) / Fold change /veh KRT8 (11758188_x_at) / RFU NKD1 (11759106_at) / Fold change /veh NKD1 (11759106_at) / RFU SRD5A1 (11742802_a_at) / Fold change /veh SRD5A1 (11742802_a_at) / RFU TPSAB1 /// TPSB2 (11721975_s_at) / Fold change /veh TPSAB1 /// TPSB2 (11721975_s_at) / RFU GSTM3 (11746129_a_at) / Fold change /veh GSTM3 (11746129_a_at) / RFU IL23R (11737362_x_at) / Fold change /veh IL23R (11737362_x_at) / RFU TMEM51 (11727254_a_at) / Fold change /veh TMEM51 (11727254_a_at) / RFU PIWIL2 (11732686_x_at) / Fold change /veh PIWIL2 (11732686_x_at) / RFU ORM1 (11744905_x_at) / Fold change /veh ORM1 (11744905_x_at) / RFU CCDC152 (11743942_at) / Fold change /veh CCDC152 (11743942_at) / RFU ECM1 (11717891_a_at) / Fold change /veh ECM1 (11717891_a_at) / RFU IL23R (11748794_a_at) / Fold change /veh IL23R (11748794_a_at) / RFU TNFAIP8L3 (11732012_x_at) / Fold change /veh TNFAIP8L3 (11732012_x_at) / RFU MBOAT4 (11741988_at) / Fold change /veh MBOAT4 (11741988_at) / RFU 11764193_at / Fold change /veh 11764193_at / RFU TMEM53 (11763286_at) / Fold change /veh TMEM53 (11763286_at) / RFU MAGEB2 (11727129_at) / Fold change /veh MAGEB2 (11727129_at) / RFU TMEM200A (11744735_a_at) / Fold change /veh TMEM200A (11744735_a_at) / RFU CCDC152 (11751479_a_at) / Fold change /veh CCDC152 (11751479_a_at) / RFU FAM211A (11726209_a_at) / Fold change /veh FAM211A (11726209_a_at) / RFU RGS16 (11746705_a_at) / Fold change /veh RGS16 (11746705_a_at) / RFU VCAN (11755009_s_at) / Fold change /veh VCAN (11755009_s_at) / RFU RHOB (11743442_s_at) / Fold change /veh RHOB (11743442_s_at) / RFU RGS16 (11720943_a_at) / Fold change /veh RGS16 (11720943_a_at) / RFU RGS16 (11720944_at) / Fold change /veh RGS16 (11720944_at) / RFU, VPS4B / Fold change vs veh, VPS4B / RFU, CREB1 / Fold change vs veh, CREB1 / RFU, DNAJC13 / Fold change vs veh, DNAJC13 / RFU, GNAQ / Fold change vs veh, GNAQ / RFU, CDK5R1 / Fold change vs veh, CDK5R1 / RFU, ZRANB3 / Fold change vs veh, ZRANB3 / RFU, CUL4A / Fold change vs veh, CUL4A / RFU, CCNY / Fold change vs veh, CCNY / RFU, UFL1 / Fold change vs veh, UFL1 / RFU, COG3 / Fold change vs veh, COG3 / RFU, DIAPH2 / Fold change vs veh, DIAPH2 / RFU, SKA2 / Fold change vs veh, SKA2 / RFU, AFF3 / Fold change vs veh, AFF3 / RFU, LMF1 / Fold change vs veh, LMF1 / RFU, IPO11 / Fold change vs veh, IPO11 / RFU, DFFB / Fold change vs veh, DFFB / RFU, FOXP1 / Fold change vs veh, FOXP1 / RFU, CARD8 / Fold change vs veh, CARD8 / RFU, STRN3 / Fold change vs veh, STRN3 / RFU, ADK / Fold change vs veh, ADK / RFU, RASSF2 / Fold change vs veh, RASSF2 / RFU, WIPF1 / Fold change vs veh, WIPF1 / RFU, LARP1B / Fold change vs veh, LARP1B / RFU, RASA1 / Fold change vs veh, RASA1 / RFU, RB1 / Fold change vs veh, RB1 / RFU, PPFIA1 / Fold change vs veh, PPFIA1 / RFU, MAT2A / Fold change vs veh, MAT2A / RFU, CCT5 / Fold change vs veh, CCT5 / RFU, WDR92 / Fold change vs veh, WDR92 / RFU, CUX1 / Fold change vs veh, CUX1 / RFU, TTC7A / Fold change vs veh, TTC7A / RFU, TMEM135 / Fold change vs veh, TMEM135 / RFU, DEPTOR / Fold change vs veh, DEPTOR / RFU, CPM / Fold change vs veh, CPM / RFU, DNAJB6 / Fold change vs veh, DNAJB6 / RFU, CACNA2D3 / Fold change vs veh, CACNA2D3 / RFU, DTX4 / Fold change vs veh, DTX4 / RFU, TFCP2 / Fold change vs veh, TFCP2 / RFU, GMCL1 /// GMCL1P1 / Fold change vs veh, GMCL1 /// GMCL1P1 / RFU, AEBP2 / Fold change vs veh, AEBP2 / RFU, SNHG1 /// SNORD22 /// SNORD25 /// SNORD26 /// SNORD27 /// SNORD28 /// SNORD29 /// SNORD31 / Fold change vs veh, SNHG1 /// SNORD22 /// SNORD25 /// SNORD26 /// SNORD27 /// SNORD28 /// SNORD29 /// SNORD31 / Fold change (Aza/veh), C12orf56 (ProbeSet 11735607_a_at) / Fold change (ACY-1035/veh), C12orf56 (ProbeSet 11735607_a_at) / Fold change (Aza/veh), FGFR1OP (ProbeSet 11751329_s_at) / Fold change (ACY-1035/veh), FGFR1OP (ProbeSet 11751329_s_at) / Fold change (Aza/veh), VPS36 (ProbeSet 11739960_a_at) / Fold change (ACY-1035/veh), VPS36 (ProbeSet 11739960_a_at) / RFU SYPL1 (11715823_x_at) / Fold change /veh SYPL1 (11715823_x_at) / RFU IGFBP7 (11715501_s_at) / Fold change /veh IGFBP7 (11715501_s_at) / RFU REEP3 (11722064_at) / Fold change /veh REEP3 (11722064_at) / RFU IGLL1 (11728026_x_at) / Fold change /veh IGLL1 (11728026_x_at): dose or concentration left out as unconfirmed
Conditions: ProbeSet 11721969_s_at; LIST B

In the case of `Nc1ccc(-c2cccs2)cc1NC(=O)c1ccc2c(c1)cc(C1CC1)n2CCN1CCOCC1` [ACY-1035], the “RFU, BDP1” value is reported as 485.00 RFU.
